Reference: patent US20020137929A1, “1 - (3-heterocyclylphenyl) isothiourea, -isourea, -guanidine and -amidine herbicidal agents” (Intellectual Property Department, BASF Aktiengesellschaft, priority 1998, published 2002)

Legend:
ABUTH (Velvetleaf) = assay: Postemergence herbicidal evaluation; type: in vivo, Abutilon theophrasti; details: postemergence
Method in brief: (§1)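 Visual 0–9 rating versus control (stand, vigor, malformation, size, chlorosis, overall appearance), taken four to five weeks post-spray. Two-week-old seedlings received roughly 0.0156–0.500 kg/ha active in acetone/water (50/50) with 0.5% TWEEN 20 via nozzle at 40 psi.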

[1] = system: CHEAL (Lambsquarters, Common); assay: Postemergence herbicidal evaluation; type: in vivo, Chenopodium album; details: postemergence
Method in brief: as §1

SETVI (Foxtail, Green) [2] = assay: Postemergence herbicidal evaluation; type: in vivo, Setaria viridis; details: postemergence
Method in brief: as §1

[3] = system: GLXMAW (Soybean, Williams); assay: Postemergence herbicidal evaluation; type: in vivo, Glycine max, (L.) Merr. cv Williams; details: postemergence
Method in brief: as §1

ORYSAT (Rice, Tebonnet) = assay: Postemergence herbicidal evaluation; type: in vivo, Oryza sativa, (L.) Tebonnet; details: postemergence
Method in brief: as §1

[4] = system: TRZAWR (Wheat, Winter, cv Riband); assay: Postemergence herbicidal evaluation; type: in vivo, Triticum aestivum; details: postemergence
Method in brief: as §1

ZEAMX (Corn, Field) = assay: Postemergence herbicidal evaluation; type: in vivo, Zea mays; details: postemergence
Method in brief: as §1

AMBEL (Ragweed, Common) = assay: Preemergence herbicidal evaluation; type: in vivo, Ambrosia artemisifolia; details: rated 4-5 weeks after treatment
Method in brief: (§2)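 Seeds were mixed with potting soil and planted on about one inch of soil, then sprayed with test compound in aqueous acetone at about 0.0156 to 0.500 kg per hectare. Plants grew under standard greenhouse care and were visually rated 0-9 against untreated controls 4-5 weeks post-treatment.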

GALAP (Galium) = assay: Preemergence herbicidal evaluation; type: in vivo, Galium aparine; details: rated 4-5 weeks after treatment
Method in brief: as §2

SETVI (Foxtail, Green) [5] = assay: Preemergence herbicidal evaluation; type: in vivo, Setaria viridis; details: rated 4-5 weeks after treatment
Method in brief: as §2

CYPIR (Rice Flatsedge) = assay: Preemergence weed control under flooded paddy conditions; type: in vivo, Cyperus iria; details: rated 3-4 weeks after treatment
Method in brief: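 Silt loam, seeds in top 0.5 cm; flood held 1.5-3 cm; test cpd as acetone/water 50/50 into flood water, ~0.0313-0.500 kg/ha a.i.; greenhouse 3-4 wk; visual 0-9 score vs control.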

[6] = rate 0.0625 kg/ha, rating scale 0-9
[7] = rate 0.1250 kg/ha, rating scale 0-9
[8] = rate 0.2500 kg/ha, rating scale 0-9
[9] = rate 0.0156 kg/ha, rating scale 0-9
[10] = rate 0.0313 kg/ha, rating scale 0-9

| Structure (SMILES) | Herbicidal rating ABUTH (ABUTH (Velvetleaf); rate 0.0156 kg/ha) | Herbicidal rating ABUTH (ABUTH (Velvetleaf); rate 0.0313 kg/ha) | Herbicidal rating ABUTH (ABUTH (Velvetleaf); rate 0.0625 kg/ha) | Herbicidal rating CHEAL ([1]; rate 0.0156 kg/ha) | Herbicidal rating CHEAL ([1]; rate 0.0313 kg/ha) | Herbicidal rating CHEAL ([1]; rate 0.0625 kg/ha) | Herbicidal rating SETVI (SETVI (Foxtail, Green) [2]; rate 0.0156 kg/ha) | Herbicidal rating SETVI (SETVI (Foxtail, Green) [2]; rate 0.0313 kg/ha) | Herbicidal rating SETVI (SETVI (Foxtail, Green) [2]; rate 0.0625 kg/ha) | Herbicidal rating GLXMAW ([3]; rate 0.0156 kg/ha) | Herbicidal rating GLXMAW ([3]; rate 0.0313 kg/ha) | Herbicidal rating GLXMAW ([3]; rate 0.0625 kg/ha) | Herbicidal rating ORYSAT (ORYSAT (Rice, Tebonnet); rate 0.0156 kg/ha) | Herbicidal rating ORYSAT (ORYSAT (Rice, Tebonnet); rate 0.0313 kg/ha) | Herbicidal rating ORYSAT (ORYSAT (Rice, Tebonnet); rate 0.0625 kg/ha) | Herbicidal rating TRZAWR ([4]; rate 0.0156 kg/ha) | Herbicidal rating TRZAWR ([4]; rate 0.0313 kg/ha) | Herbicidal rating TRZAWR ([4]; rate 0.0625 kg/ha) | Herbicidal rating ZEAMX (ZEAMX (Corn, Field); rate 0.0156 kg/ha) | Herbicidal rating ZEAMX (ZEAMX (Corn, Field); rate 0.0313 kg/ha) | other results |
| --- | --- | --- | --- | --- | --- | --- | --- | --- | --- | --- | --- | --- | --- | --- | --- | --- | --- | --- | --- | --- | --- |
| Cc1ccccc1CN1C(=O)CSC1=Nc1cc(-n2c(=O)cc(C(F)(F)F)n(C)c2=O)c(F)cc1Cl [Compound 129, 3-{4-Chloro-2-fluoro-5-{[3-(o-methylbenzyl)-4-oxo-2-thiazolidinylidene]amino}phenyl}-1-methyl-6-(trifluoromethyl)-2,4 (1H,3H)-pyrimidinedione] | 9.0 | 9.0 | 9.0 | 5.0 | 9.0 | 9.0 | 2.0 | 3.0 | 5.0 | 5.0 | 5.0 | 6.0 | 2.5 | 3.5 | 3.0 | 3.0 | 3.5 | 3.5 | 4.0 | 4.5 | Herbicidal rating ZEAMX (ZEAMX (Corn, Field); rate 0.0625 kg/ha): 4.5; Preemergence herbicidal rating AMBEL (AMBEL (Ragweed, Common); rate 0.0156 kg/ha): 0.0; Preemergence herbicidal rating AMBEL (AMBEL (Ragweed, Common); rate 0.0313 kg/ha): 0.0; Preemergence herbicidal rating AMBEL (AMBEL (Ragweed, Common); rate 0.0625 kg/ha): 0.0; Preemergence herbicidal rating AMBEL (AMBEL (Ragweed, Common); rate 0.1250 kg/ha): 7.0; Preemergence herbicidal rating AMBEL (AMBEL (Ragweed, Common); rate 0.2500 kg/ha): 7.0; Preemergence herbicidal rating GALAP (GALAP (Galium); rate 0.0156 kg/ha): 1.0; Preemergence herbicidal rating GALAP (GALAP (Galium); rate 0.0313 kg/ha): 1.0; Preemergence herbicidal rating GALAP (GALAP (Galium); rate 0.0625 kg/ha): 1.0; Preemergence herbicidal rating GALAP (GALAP (Galium); rate 0.1250 kg/ha): 0.0; Preemergence herbicidal rating GALAP (GALAP (Galium); rate 0.2500 kg/ha): 0.0; Preemergence herbicidal rating SETVI (SETVI (Foxtail, Green) [5]; rate 0.0156 kg/ha): 1.0; Preemergence herbicidal rating SETVI (SETVI (Foxtail, Green) [5]; rate 0.0313 kg/ha): 1.0; Preemergence herbicidal rating SETVI (SETVI (Foxtail, Green) [5]; rate 0.0625 kg/ha): 1.0; Preemergence herbicidal rating SETVI (SETVI (Foxtail, Green) [5]; rate 0.1250 kg/ha): 6.0; Preemergence herbicidal rating SETVI (SETVI (Foxtail, Green) [5]; rate 0.2500 kg/ha): 7.0; herbicidal effect rating, CYPIR (CYPIR (Rice Flatsedge); 0.0313 kg/ha): 4.0; herbicidal effect rating, CYPIR (CYPIR (Rice Flatsedge); 0.0625 kg/ha): 5.0; herbicidal effect rating, CYPIR (CYPIR (Rice Flatsedge); 0.1250 kg/ha): 7.0; herbicidal effect rating, CYPIR (CYPIR (Rice Flatsedge); 0.2500 kg/ha): 9.0 |
| Cn1c(C(F)(F)F)cc(=O)n(-c2cc(N=C3SCC(=O)N3Cc3cccnc3)c(Cl)cc2F)c1=O [Compound 132, 3-{4-Chloro-2-fluoro-5-{[4-oxo-3-(3-pyridylmethyl)-2-thiazolidinylidene]amino}phenyl}-1-methyl-6-(trifluoromethyl)-2,4 (1H,3H)-pyrimidinedione] | 9.0 | 9.0 | 9.0 | 4.0 | 4.0 | 9.0 | 1.0 | 4.0 | 3.0 | 5.0 | 5.0 | 6.0 | 2.0 | 3.0 | 3.5 | 3.0 | 3.5 | 4.0 | 3.5 | 4.0 | Herbicidal rating ZEAMX (ZEAMX (Corn, Field); rate 0.0625 kg/ha): 4.5; Preemergence herbicidal rating AMBEL (AMBEL (Ragweed, Common); [6]): 0.0; Preemergence herbicidal rating AMBEL (AMBEL (Ragweed, Common); [7]): 4.0; Preemergence herbicidal rating AMBEL (AMBEL (Ragweed, Common); [8]): 7.0; Preemergence herbicidal rating GALAP (GALAP (Galium); [6]): 4.0; Preemergence herbicidal rating GALAP (GALAP (Galium); [7]): 4.0; Preemergence herbicidal rating GALAP (GALAP (Galium); [8]): 5.0; Preemergence herbicidal rating SETVI (SETVI (Foxtail, Green) [5]; [6]): 0.0; Preemergence herbicidal rating SETVI (SETVI (Foxtail, Green) [5]; [7]): 3.0; Preemergence herbicidal rating SETVI (SETVI (Foxtail, Green) [5]; [8]): 9.0; herbicidal effect rating, CYPIR (CYPIR (Rice Flatsedge); 0.0313 kg/ha): 0.0; herbicidal effect rating, CYPIR (CYPIR (Rice Flatsedge); 0.0625 kg/ha): 0.0; herbicidal effect rating, CYPIR (CYPIR (Rice Flatsedge); 0.1250 kg/ha): 0.0; herbicidal effect rating, CYPIR (CYPIR (Rice Flatsedge); 0.2500 kg/ha): 3.0 |
| Cc1cc(C)cc(CN2C(=O)CSC2=Nc2cc(-n3c(=O)cc(C(F)(F)F)n(C)c3=O)c(F)cc2Cl)c1 [Compound 146, 3-{4-Chloro-5-{[3-(3,5-dimethylbenzyl)-4-oxo-2-thiazolidinylidene]amino}-2-fluorophenyl}-1-methyl-6-(trifluoromethyl)-2,4(1H,3H)-pyrimidinedione] | 9.0 | 9.0 | 9.0 | 9.0 | 9.0 | 9.0 | 1.0 | 2.0 | 3.0 | 5.0 | 6.0 | 6.0 | 2.0 | 3.5 | 4.0 | 2.0 | 3.5 | 4.5 | 4.0 | 4.5 | Herbicidal rating ZEAMX (ZEAMX (Corn, Field); rate 0.0625 kg/ha): 4.5; Preemergence herbicidal rating AMBEL (AMBEL (Ragweed, Common); [9]): 0.0; Preemergence herbicidal rating AMBEL (AMBEL (Ragweed, Common); [10]): 0.0; Preemergence herbicidal rating AMBEL (AMBEL (Ragweed, Common); [6]): 0.0; Preemergence herbicidal rating AMBEL (AMBEL (Ragweed, Common); [7]): 0.0; Preemergence herbicidal rating AMBEL (AMBEL (Ragweed, Common); [8]): 3.0; Preemergence herbicidal rating GALAP (GALAP (Galium); [9]): 1.0; Preemergence herbicidal rating GALAP (GALAP (Galium); [10]): 0.0; Preemergence herbicidal rating GALAP (GALAP (Galium); [6]): 0.0; Preemergence herbicidal rating GALAP (GALAP (Galium); [7]): 2.0; Preemergence herbicidal rating GALAP (GALAP (Galium); [8]): 2.0; Preemergence herbicidal rating SETVI (SETVI (Foxtail, Green) [5]; [9]): 0.0; Preemergence herbicidal rating SETVI (SETVI (Foxtail, Green) [5]; [10]): 0.0; Preemergence herbicidal rating SETVI (SETVI (Foxtail, Green) [5]; [6]): 0.0; Preemergence herbicidal rating SETVI (SETVI (Foxtail, Green) [5]; [7]): 3.0; Preemergence herbicidal rating SETVI (SETVI (Foxtail, Green) [5]; [8]): 5.0; herbicidal effect rating, CYPIR (CYPIR (Rice Flatsedge); 0.0313 kg/ha): 4.0; herbicidal effect rating, CYPIR (CYPIR (Rice Flatsedge); 0.0625 kg/ha): 6.0; herbicidal effect rating, CYPIR (CYPIR (Rice Flatsedge); 0.1250 kg/ha): 6.0; herbicidal effect rating, CYPIR (CYPIR (Rice Flatsedge); 0.2500 kg/ha): 7.0 |
